EP0357495A2, “3'Azido-3'-deoxythymidine (AZT) derivatives active against the AIDS virus” (IRE-CELLTARG S.A., priority 1988, dated 1990)

What was measured:
[1] = system: virus HIV-1 (souche HTLV-IIIB); test: anti-HIV activity in HIV-infected MT4 cells (MTT method); format: cell-based
Protocol: Les produits (AZT, AZT-5′ hémisuccinyl et AZT 5′-leucyl) à différentes concentrations ont été mis en présence de cellules MT4 (4 X 10⁴ cellules par puits de microtray) infectées ou non avec 100 CCID₅₀ de virus HIV-1 (souche HTLV-IIIB). La CCID₅₀ représente la quantité de virus à rajouter pour obtenir une infection de 50 % des cellules (dose infectieuse de cellules en culture 50).
Après cinq jours d'incubation à 37°C, le nombre de cellules vivantes a été déterminé par la méthode au MTT, basée sur la réduction par les cellules vivantes du 3′-(4, 5-diméthylthiazol-2-yl)-2,5-diphényltétrazoliumbromide, jaune, en formazan, bleu. L'activité antivirale et la cytotoxicité sont exprimées sous forme de ED₅₀ et de CD₅₀. La CD₅₀ représente la dose qui tue 50 % des cellules non infectées et la ED₅₀ représente la dose qui protège 50 % des cellules de l'infection virale.
La même expérience que celle décrite ci-avant (exemple 9.1)) a été réalisée, mais en présence de thymidine 250 µM et de 2′déoxycytidine 500 µM. En effet l'AZT entre en compétition avec la thymidine au niveau des enzymes de phosphorylation qui vont le transformer en AZT triphosphate (AZT TP) qui est la forme active du produit. Un excès de thymidine réduit donc très fortement l'activité de l'AZT, ce qui se traduit par une ED₅₀ plus élevée. Par conséquent, si le dérivé de l'AZT doit son activité à la libération d'AZT qui à son tour est phosphorylé en AZT TP, un excès de thymidine aura également pour effet d'élever la ED₅₀ du dérivé. La thymidine étant cytotoxique à la concentration utilisée, il est nécessaire de rajouter de la 2′déoxycytidine pour empêcher cette toxicité.
Les protocoles expérimentaux sont ceux décrits à l'exemple 9 3.1) et 9 3).

[2] = system: cellules de la moëlle osseuse; test: toxicity on bone marrow cells (colony count, day 7); format: cell-based; conditions: bone marrow cells of a healthy donor, semi-solid medium with GMCSF, colonies at day 7
Source text: Des cellules ont été isolées à partir d'un prélèvement de moëlle osseuse chez un donneur sain. Elles ont été mises en culture en milieu semi-solide (agar) additionné de Granulocyte-Macrophage-Colony Stimulating Factor (GMCSF) en présence d'AZT et d'AZT 5′hémisuccinyl à différentes concentrations. Le nombre de cellules ayant donné naissance à une colonie a été déterminé par comptage de colonies au jour 7.
La toxicité du dérivé est de l'ordre de 10 fois plus faible que celle de l'AZT.

[3] = system: lignées cellulaires continues; test: in vitro toxicity on continuous cell lines (MTT method); format: cell-based; conditions: all cell lines tested, comparison with AZT; tableau 8 is an image
Source text: Dans le but d'évaluer la toxicité du dérivé 5′hémisuccinyl de l'AZT, des expériences ont été réalisées sur différentes lignées cellulaires continues.
L'AZT et son dérivé 5′hémisuccinyl à différentes concentrations ont été mis en présence de cellules en phase de croissance. Le nombre de cellules vivantes a été déterminé par la méthode au MTT après 1, 2, 3 et 4 jours de culture. La cytotoxicité a été mesurée et est exprimée sous forme de CD₅₀.
Les lignées cellulaires continues utilisées sont les suivantes : - Cellules en suspension : [formula] - Cellules adhérentes : Hep-G2 : hépatocarcinome humain Hep-2 : carcinome épidermoïde humain
Les résultats sont repris au tableau 8.

[4] = system: virus HIV-1 (souche HTLV-IIIB); test: viral antigen assay in HIV-infected human peripheral blood lymphocytes; format: cell-based; conditions: day 14 of culture
Source text: Les lymphocytes ont été extraits d'un concentré plaquettaire par séparation sur gradient de Ficoll et élimination des adhérentes. Après 3 jours de stimulation par la phytohémaglutinine, ils ont été transférés dans un milieu additionné d'interleukine-2 (IL-2) est infectés par le virus HIV-1 (souche HTLV-IIIB). L'AZT et son dérivé 5′ hémisuccinate à différentes concentrations ont été rajoutés aux cellules au moment de l'infection.
Trois jours après l'infection, le milieu a été remplacé par du milieu frais additionné d'IL-2, contenant les produits aux concentrations désirées pour la moitié des cellules, et ne contenant plus de produit pour l'autre moitié. Ensuite, le milieu des cellules a été remplacé à moitié par du milieu frais additionné d'IL-2, contenant ou non les produits aux concentrations désirées, tous les 3 à 4 jours.
La multiplication du virus a été suivie par dosage des antigènes viraux dans les surnageants de culture (Innotest HIV-Organon Teknika).

[5] = system: virus HIV-1 (souche HTLV-IIIB); test: viral antigen expression in HIV-infected HUT-78 cells (indirect immunofluorescence, laser cytofluorescence); format: cell-based
Source text: Les produits (AZT et AZT-5′ hémisuccinyl) à différentes concentrations ont été mis en présence de cellules HUT-78 infectées par le virus HIV-1 (souche HTLV-IIIB) à une multiplicité d'infection de 0.4. Tous les quatre jours, 3/4 du milieu ont été remplacés par du milieu frais. Après douze jours, l'expression des antigènes viraux a été mesurée par immunofluorescence indirecte à l'aide d'un sérum anti-HIV-I positif, et par cytofluorescence laser, tel que décrit par Pauwels et al. J. Virol. Meth. 16, 171-185 (1987).
Des résultats sont exprimés dans le tableau 3 en ED₅₀ et en pourcentage d'effet protecteur selon la formule : [formula] TABLEAU 3

[6] = in vivo toxicity, intraperitoneal, 5-day-old NMRI mice; design: species or system souriceaux NMRI; conditions: AZT-5′hémisuccinyl, i.p.
Protocol: L'AZT et son dérivé 5′hémisuccinyl ont été administrés par voie infra-péritonéale à de souriceaux NMRI âgés de 5 jours (100 µl/g de poids corporel). Les animaux ont été contrôlés tous les jours selon 2 critères : survie et poids pendant 25 jours.
Les résultats sont repris au tableau 9. Les souriceaux traités n'ont pas montre de différence significative dans la prise de poids par rapport aux contrôles. Tableau 9

[7] = tableau 4, MT-4, with thymidine (250µM) + 2′déoxy-cytidine (500 µM)
[8] = tableau 4, MT-4, without thymidine / 2′déoxycytidine

Cc1cn([C@H]2C[C@H](N=[N+]=[N-])[C@@H](COC(=O)CCC(=O)O)O2)c(=O)[nH]c1=O [AZT 5′hémisuccinyl, 5′-hémisuccinyl-3′-azido-3′-déoxythymidine]
activité (compared with AZT, in words) ([1]; comparison with AZT): comparable à celle de l'AZT | indice de sélectivité ([1]; de l'ordre de): ~28 000 | ED₅₀ ([1]; tableau 2, MT4 cells infected with 100 CCID₅₀ HIV-1, 5 days at 37°C, dose that protects 50 % of cells): .0069 µM | SI ([1]; tableau 2, indice de sélectivité = CD₅₀ sur ED₅₀, MT4 cells): 28543 | SI dérivé/SI AZT ([1]; tableau 2, ratio within the same experiment, MT4 cells): 4.7 | ED₅₀ [1, 7]: 6,8399 µM | SI [1, 7]: 53 | ED₅₀ [1, 8]: 0,0523 µM | SI [1, 8]: 5633 | toxicité plus faible que celle de l'AZT [2]: ~10 fois | toxicité sur lignées cellulaires continues (in words) [3]: moins toxique que l'AZT | ED₅₀ ([4]; durée d'administration 3 jours): 0.078 µM | ED₅₀ ([4]; durée d'administration 14 jours): 0.057 µM | Pourcentage d'effet protecteur ([5]; HUT-78, day 12, concentration 0.022 µM): -23% | Pourcentage d'effet protecteur ([5]; HUT-78, day 12, concentration 0.11 µM): 48% | Pourcentage d'effet protecteur ([5]; HUT-78, day 12, concentration 0.54 µM): 21% | Pourcentage d'effet protecteur ([5]; HUT-78, day 12, concentration 2.71 µM): 72% | ED₅₀ ([5]; HUT-78 cells, multiplicity of infection 0.4, day 12): ED₅₀ AZT-5′hémisuccinyl = 1,77 µM | Survivants au jour 25 ([6]; dose 1 g/kg poids corporel (équivalent AZT 0.73)): 100% | Survivants au jour 25 ([6]; dose 2 g/kg poids corporel (équivalent AZT 1.46)): 100% | Survivants au jour 25 ([6]; dose 3 g/kg poids corporel (équivalent AZT 2.2)): 50% | mortalité/jour ([6]; dose 3 g/kg poids corporel (équivalent AZT 2.2), au jour 1): (50 % au jour 1)
